The source of these data is paper PMC5777145 (Analytical chemistry, 2017).

“Also recorded” adds a separate entry of the source.

For data set [1] the following is noted: ref International Agency for Research on Cancer (IARC); cited from earlier work.
A further data set concerns DNA. The settings on record: cited from earlier work.
The subject of data set [2] is salmon testes DNA. The settings on record: for ECL intensity vs enzyme reaction time, DNA oxidation (8-oxodG): 3 mM 4ABP, AF or anisidine, 5 mM NA, pH 7.4 + NADPH regenerating system + Cu2+, different cyt P450 sources, ECL at 0.7 V.
For data set [3] the following is noted: rodent TD50, Comet assay; cited from earlier work.
Data set [4] deals with salmon testes DNA.
A further data set has as its system cyt P450s. Nature of the data set: Mass spectrometry of metabolites after incubation with cyt P450s, NADPH and Cu2+. Format: in vitro ADME. The settings on record: positive-ion electrospray MS.

On to `Nc1ccc(-c2ccccc2)cc1` [4ABP, 4-Aminobiphenyl], for which the carcinogen classification entry in data set [1] is “group I carcinogen”. Also, in the data set with DNA, the “major DNA adduct found” value is “N-(2′-deoxyguanosin-8-yl)-4-aminobiphenyl”. In addition, in the data set on salmon testes DNA [2], the “ECL intensity vs enzyme reaction time, DNA oxidation (8-oxodG)” value (“ECL intensity vs enzyme reaction time” below) is “increase in ECL intensity with reaction time”.

Take `Nc1ccc2c(c1)Cc1ccccc1-2` [AF, 2-aminofluorene]: in the data set on salmon testes DNA [2], the “ECL intensity vs enzyme reaction time” value is “increases in ECL with reaction time”.

With `Nc1ccc2ccccc2c1` [NA, 2-naphthylamine], in the data set on DNA, the “major DNA adduct found” value is listed as “N-(2′-deoxyguanosin-8-yl)-2-naphthylamine”. Besides, the “toxicity by conventional bioassays” value in data set [3] is given as “relative lower levels of toxicity”. The “order of relative DNA adduction rate” value in the data set with salmon testes DNA [4] is recorded as 4-ABP > AF > anisidine > NA. The “relative turnover rate R, DNA adduction (level in words)” value with salmon testes DNA [4] (array R values) was “smaller R values”. Further, in the data set on salmon testes DNA [4] (human, rat (enzyme sources), salmon (DNA)), the “influence of cyt P450 source on relative DNA adduction rate” value was “Supersome 1A2 had the largest relative DNA oxidation and adduction rates”. Also, the metabolites found result in the data set on cyt P450s is listed as “hydronitroxide radical; also recorded: nitroso naphthalene”. In the data set on salmon testes DNA [2], the “relative turnover rate R, DNA oxidation (level in words)” value is “smaller R values” and the “ECL intensity vs enzyme reaction time” value is recorded as “increases in ECL with reaction time”. In the data set on salmon testes DNA [2] (human, rat (enzyme sources), salmon (DNA), pH 7.4), the “influence of cyt P450 source on relative DNA oxidation rate” value was “Supersome 1A2 had the largest relative DNA oxidation and adduction rates”. Further, in the data set with salmon testes DNA [2] (pH 7.4), the “order of relative DNA oxidation rates” value is on record as 4-ABP > AF ≈ anisidine > NA.

On to `COc1ccccc1N` [anisidine, o-anisidine], for which the carcinogen classification entry in data set [1] is “group 2B carcinogen”. In the data set with DNA, the “major DNA adduct found” value is “N-(2′-deoxyguanosin-8-yl)-2-methoxyaniline”. Further, the metabolites found entry in the data set on cyt P450s is recorded as “o-aminophenol”. Further, the “ECL intensity vs enzyme reaction time” value in the data set on salmon testes DNA [2] was “increases in ECL with reaction time”.
